ChEMBL document CHEMBL1201862, “PubChem BioAssay data set” (2004)
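Grown in 96-well plates, cells were treated for 48 hours with each compound at five concentrations. Insufficient inhibition: endpoint recorded as highest concentration tested. Abbreviation: GI50, concentration required for 50% inhibition of growth.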 Activity calls are given as the source filed them. Rule as the data show it: active = GI50 up to about 1.1 µM and inactive = higher.

Legend:
Assay in all cases: inhibition of tumour cell growth, NCI panel, 48 h
DLD-1 = test system: DLD-1
HOP-18 = test system: HOP-18
ACHN = test system: ACHN
MDA-N = test system: MDA-N
MDA-MB-231 = test system: MDA-MB-231
DMS-114 = test system: DMS-114

Compound	GI50 (DLD-1)	GI50 (HOP-18)	GI50 (ACHN)	GI50 (MDA-N)	GI50 (MDA-MB-231)	GI50 (DMS-114)
COc1ccc(O)c(C#N)c1C#N.COc1ccc(OC)c(C#N)c1C#N	> 100 µM (inactive)					
O=C(O)c1ccccc1/N=C/c1ccc(N(CCCl)CCCl)cc1	> 100 µM (inactive)	> 100 µM (inactive)				
CCOC(=O)Cn1c(=O)ccn(COCCO)c1=O			> 100 µM (inactive)	> 100 µM (inactive)	> 100 µM (inactive)	
CO/N=C1\CC(NC(=O)C(F)(F)F)c2ccsc21 (stereo unspecified)				> 100 µM (inactive)	> 100 µM (inactive)	
CC(C)=CC1C(C(=O)O)C1(C)C (stereo unspecified) [CHRYSANTHEMIC ACID]	> 750 µM (inactive)	197 µM (inactive)				> 750 µM (inactive)
Brc1ccc2[nH]c3c(C4=NCCC4)nccc3c2c1	15.5 µM (inactive)	10.2 µM (inactive)				14.5 µM (inactive)
c1ccc2sc(SCN(C3CCCCC3)C3CCCCC3)nc2c1			> 100 µM (inactive)		> 100 µM (inactive)	
